Results: US4826845A, “3(2H)-pyridazinones and pharmaceutical compositions thereof” (Richter Gedeon Vegyeszeti Gyar T.R., priority 1985, dated 1989)
Where a name gives a salt, the structure may show the parent alone. Read-outs that look alike come from different tables or passages of the source.

Tests used:
anaesthetized cats = experiment: Measurement of the hypotensive effect on anaesthetized cats (i.v. screening); type: in vivo, cat
Description: A tube was introduced into the trachea of cats anaesthetized by the intraperitoneal (i.p.) administration of 35 mg/kg of sodium pentobarbital whereby the spontaneous breathing was supported. On the one side of the animals, the femoral artery and vein were exposed and a polyethylene cannula was introduced in both vessels each. The substances to be tested were administered through the venous cannula. The mean arterial blood pressure was measured by connecting the arterial cannula with a Statham P 23 Db pressure transducer and electromanometer.
As a first screening dose, 5 mg/kg of the compounds to be tested were intravenously (i.v.) administered.

conscious SH rats [1] = experiment: Antihypertensive effect on conscious, spontaneously hypertensive (SH) rats after oral administration; type: in vivo, rat
Text: The systolic blood pressure was indirectly measured by the tail-cuff method. The compounds to be tested were introduced orally (p.o.) to the animals. The blood pressure measurements were made by using a 5-channel automatized equipment.

[2] = test system: pre- and postsynaptic alpha receptors; experiment: Action on the pre- and postsynaptic adrenergic alpha receptors on the stimulated mouse vas deferens; type: cell-based
Description: The method of Hughes et al. [Brit. J. Phamacol. 51, pp. 139-140P (1975)] was used. The preparations suspended in a modified Krebs solution at 31° C. were excited by the field stimulation method [rectangular paired impulses with 1 msec interval, supramaximal potential (70 to 75 V=8 to 9 V/cm) and 100 msec impulse interval, pairs repeated in each 10 sec]. After stimulation, norepinephrine (NE) was dropped into the organ bath and a dose-response curve was taken up. Thus, the effect of both the endogenous norepinephrine liberated by stimulation and the exogenous norepinephrine could be studied before and after adding the substance to be tested.

[3] = test system: postsynaptic alpha1 receptor; experiment: Kinetic analysis on rabbit aorta strip preparation: postsynaptic alpha1 receptor antagonism; type: cell-based
Description: Male rabbits with a body-weight of 3 to 3.5 kg were used for these experiments. […] A dose response curve was plotted by using norepinephrine and a dose selected from the steepest interval of the curve was added repeatedly to the bath until obtaining equal responses. Then, the compound to be tested was added and after 5 minutes, the dose series of norepinephrine was repeated. The extent of the inhibition was expressed as percentage.

[4] = test system: adrenergic receptor-mediated calcium channel; experiment: Calcium-antagonism on isolated portal vein: adrenergic receptor-mediated calcium channel; type: cell-based; conditions: rat portal vein, 1×10^-5 mole norepinephrine, 37° C.; read-out: Inhibition of the calcium channel, adrenergic receptor-mediated, IC50
Description: (§1) The calcium-antagonism of the compounds of the invention was studied on an isolated vessel preparation based on the work of M. Fiol de Cuneo et al. [Arch. Int. Pharmacodyn.
(§2) Male CFY rats with a body-weight of 150 to 200 g were bled by decapitation and the portal vein was immediately prepared starting from the hepatic portal. The vessel was longitudinally incised, bound to a transducer registering the contractions and incubated under a tension of 1 g at 37° C. in a calcium-free Krebs-Ringer bicarbonate solution aerated with carbogen. After an equilibration lasting for 30 minutes, the functioning of the receptor-mediated and the K^+ -depolarisation-mediated calcium channels, respectively, were investigated.
(§3) All measurements were carried out at 37° C. while bubbling through carbogen.

[5] = biological target: T1, potential-mediated calcium channel (Rattus norvegicus, UniProt P22002); experiment: Calcium-antagonism on isolated portal vein: potential-mediated calcium channel; type: cell-based; conditions: rat portal vein, 80 millimoles KCl, 37° C.; read-out: Inhibition of the calcium channel, potential-mediated, IC50
T1 construct: from tissue; host or cells: isolated rat portal vein
Description: as §1, §2
For investigating the potential-mediated calcium channel, the vein placed in the calcium-free Krebs-Ringer solution was washed by adding and then by removing 80 millimoles of potassium chloride while maintaining the isotania until no contraction appeared on repeatedly adding potassium chloride.
as §3

[6] = test system: pressor (blood pressure increasing) effect of epinephrine; experiment: Inhibition of the pressor effect of epinephrine; conditions: in vivo
anaesthetized dogs = experiment: Hypotensive and heart rate effects on anaesthetized dogs after intravenous or intraduodenal administration; type: in vivo, Beagle dog
Description: (§4) Beagle dogs of both sexes were anaesthetized by the intravenous administration of 40 mg/kg of sodium pentobarbital. A cannula was introduced to the femoral artery and vein each on one side for the intravenous administration of the compounds to be tested as well as for measuring the blood pressure.
In an other series of these experiments, the substances were administered through a duodenal tube. Similarly to the experiments carried out on cats, the systemic arterial blood pressure was measured by using an electromanometer and the cardiotachometer was triggered by the heart rate wave sign. […]

renal artery = experiment: Renal arterial vascular resistance in anaesthetized dogs; type: in vivo, Beagle dog
Description: as §4
In an other series of these experiments, the substances were administered through a duodenal tube. Similarly to the experiments carried out on cats, the systemic arterial blood pressure was measured by using an electromanometer and the cardiotachometer was triggered by the heart rate wave sign.
The renal artery on one side was exposed retroperitoneally and fitted with an electromagnetic flow-meter head for measuring the blood flow of the renal arterial vascular bed and for determining the local vascular resistance.

conscious SH rats [7] = experiment: Antihypertensive effect on conscious SH rats after acute oral treatment; type: in vivo, rat
Text: (§5) These experiments were accomplished on conscious spontaneously hypertensive (SH) and renally hypertensive rats.
(§6) The systolic blood pressure and heart rate of the animals were indirectly measured by using the tail-cuff method by means of a 5- channel automatized equipment.

[8] = test system: conscious renal hypertensive rats; experiment: Antihypertensive effect on conscious renal hypertensive rats after acute oral treatment; type: in vivo, rat
Text: as §5, §6

SH rats = experiment: Subacute treatment of SH rats; type: in vivo, rat
Description: as §6
The subacute experiments were carried out on SH rats by administering daily twice a 3 mg/kg intraperitoneal dose for 14 days.

Acute toxicity in mice = conditions: mouse, in vivo
Text: Male and female CFY rats and mice were used.

T1 sequence (P22002 whole entry): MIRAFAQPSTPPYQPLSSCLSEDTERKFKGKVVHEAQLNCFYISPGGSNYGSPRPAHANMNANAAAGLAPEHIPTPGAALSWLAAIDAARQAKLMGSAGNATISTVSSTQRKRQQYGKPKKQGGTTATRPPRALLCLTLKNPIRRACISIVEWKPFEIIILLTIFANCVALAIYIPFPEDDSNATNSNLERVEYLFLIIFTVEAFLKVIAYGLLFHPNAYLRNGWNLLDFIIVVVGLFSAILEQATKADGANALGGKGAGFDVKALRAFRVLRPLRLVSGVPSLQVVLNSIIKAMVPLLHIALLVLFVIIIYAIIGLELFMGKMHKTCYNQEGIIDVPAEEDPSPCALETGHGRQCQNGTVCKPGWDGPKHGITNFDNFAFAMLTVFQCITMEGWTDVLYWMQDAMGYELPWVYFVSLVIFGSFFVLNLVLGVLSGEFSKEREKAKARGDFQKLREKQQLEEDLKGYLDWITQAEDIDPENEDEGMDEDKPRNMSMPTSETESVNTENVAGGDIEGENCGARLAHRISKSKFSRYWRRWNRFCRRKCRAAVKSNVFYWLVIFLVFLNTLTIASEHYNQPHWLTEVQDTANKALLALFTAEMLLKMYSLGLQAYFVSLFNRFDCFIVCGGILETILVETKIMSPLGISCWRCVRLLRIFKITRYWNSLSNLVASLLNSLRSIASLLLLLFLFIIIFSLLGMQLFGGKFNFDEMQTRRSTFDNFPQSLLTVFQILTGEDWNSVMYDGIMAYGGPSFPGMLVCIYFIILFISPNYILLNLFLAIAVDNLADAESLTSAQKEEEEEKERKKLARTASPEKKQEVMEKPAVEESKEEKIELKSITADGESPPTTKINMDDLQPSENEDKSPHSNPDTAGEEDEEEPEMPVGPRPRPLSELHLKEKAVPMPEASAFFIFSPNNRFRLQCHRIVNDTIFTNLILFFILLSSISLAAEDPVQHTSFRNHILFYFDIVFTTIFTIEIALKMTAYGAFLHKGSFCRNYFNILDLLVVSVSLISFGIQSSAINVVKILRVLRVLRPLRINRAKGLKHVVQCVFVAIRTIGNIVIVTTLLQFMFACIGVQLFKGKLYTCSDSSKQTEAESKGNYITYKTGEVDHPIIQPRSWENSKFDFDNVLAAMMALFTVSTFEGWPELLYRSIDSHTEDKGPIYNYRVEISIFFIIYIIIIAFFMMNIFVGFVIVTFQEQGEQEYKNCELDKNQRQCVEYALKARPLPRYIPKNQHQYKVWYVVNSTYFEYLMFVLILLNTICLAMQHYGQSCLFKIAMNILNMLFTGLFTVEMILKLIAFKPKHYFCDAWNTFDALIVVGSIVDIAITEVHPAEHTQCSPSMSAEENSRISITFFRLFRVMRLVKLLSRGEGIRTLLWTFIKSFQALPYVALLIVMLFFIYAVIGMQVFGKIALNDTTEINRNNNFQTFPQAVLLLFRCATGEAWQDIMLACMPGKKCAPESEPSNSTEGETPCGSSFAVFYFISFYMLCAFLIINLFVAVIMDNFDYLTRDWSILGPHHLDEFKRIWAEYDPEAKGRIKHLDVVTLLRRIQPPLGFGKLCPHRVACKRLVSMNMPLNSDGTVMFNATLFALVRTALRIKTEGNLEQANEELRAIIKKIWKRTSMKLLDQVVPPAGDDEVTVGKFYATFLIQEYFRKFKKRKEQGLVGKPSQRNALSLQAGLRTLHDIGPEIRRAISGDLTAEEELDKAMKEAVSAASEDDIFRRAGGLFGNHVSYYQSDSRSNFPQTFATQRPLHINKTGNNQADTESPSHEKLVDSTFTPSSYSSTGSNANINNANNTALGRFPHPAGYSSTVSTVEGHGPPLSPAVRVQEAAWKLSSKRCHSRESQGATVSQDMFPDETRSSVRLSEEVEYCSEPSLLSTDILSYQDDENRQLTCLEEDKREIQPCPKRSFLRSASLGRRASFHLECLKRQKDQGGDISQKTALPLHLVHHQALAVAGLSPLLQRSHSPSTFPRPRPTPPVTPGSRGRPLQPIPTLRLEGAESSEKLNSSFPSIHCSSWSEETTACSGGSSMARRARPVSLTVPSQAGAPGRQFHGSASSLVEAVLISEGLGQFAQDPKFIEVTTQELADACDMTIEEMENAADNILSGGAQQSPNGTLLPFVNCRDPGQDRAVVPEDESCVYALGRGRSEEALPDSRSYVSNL
T1 sequence (P54290 25-944 partner limits assumed): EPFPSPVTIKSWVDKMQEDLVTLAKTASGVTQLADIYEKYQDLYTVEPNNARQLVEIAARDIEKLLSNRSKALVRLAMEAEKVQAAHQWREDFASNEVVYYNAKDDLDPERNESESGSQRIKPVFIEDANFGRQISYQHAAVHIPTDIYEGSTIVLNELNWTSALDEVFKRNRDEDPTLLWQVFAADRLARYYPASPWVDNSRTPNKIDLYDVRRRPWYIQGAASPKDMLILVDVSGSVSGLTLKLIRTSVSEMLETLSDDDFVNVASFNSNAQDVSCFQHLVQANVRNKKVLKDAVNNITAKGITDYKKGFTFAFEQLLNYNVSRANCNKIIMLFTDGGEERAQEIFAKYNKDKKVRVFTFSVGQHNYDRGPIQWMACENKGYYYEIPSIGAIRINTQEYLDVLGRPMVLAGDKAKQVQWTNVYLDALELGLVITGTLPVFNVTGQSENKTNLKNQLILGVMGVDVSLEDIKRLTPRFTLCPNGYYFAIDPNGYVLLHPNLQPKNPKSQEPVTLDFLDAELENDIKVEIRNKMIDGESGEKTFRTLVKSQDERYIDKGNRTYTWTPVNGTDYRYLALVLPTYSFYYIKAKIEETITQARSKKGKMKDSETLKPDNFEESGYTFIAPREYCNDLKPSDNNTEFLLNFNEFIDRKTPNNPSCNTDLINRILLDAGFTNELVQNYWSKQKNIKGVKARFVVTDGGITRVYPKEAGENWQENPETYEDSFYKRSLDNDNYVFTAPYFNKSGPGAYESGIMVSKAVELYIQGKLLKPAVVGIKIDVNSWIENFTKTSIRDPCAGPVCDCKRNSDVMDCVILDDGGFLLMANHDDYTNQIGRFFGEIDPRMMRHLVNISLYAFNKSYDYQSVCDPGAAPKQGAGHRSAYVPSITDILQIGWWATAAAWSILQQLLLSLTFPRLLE
T1 sequence (P54290 945-1091 partner limits assumed): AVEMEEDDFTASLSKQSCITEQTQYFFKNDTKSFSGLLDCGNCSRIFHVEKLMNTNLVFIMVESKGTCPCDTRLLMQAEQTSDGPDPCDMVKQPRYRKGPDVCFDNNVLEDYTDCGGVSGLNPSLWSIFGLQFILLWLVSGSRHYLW

O=c1cccnn1CCCNCC1COc2ccccc2O1 (stereo not drawn) [Example 3 (or 12), 2-[3-(benzo[1,4]dioxan-2-yl-methylamino)-1-propyl]-3(2H)-pyridazinone hydrochloride]
Mean arterial pressure decrease (anaesthetized cats; anaesthetized cats, 5.0 mg/kg i.v.): -95 Hgmm | blood pressure lowering action (in words) (anaesthetized cats; intravenous, summary of Table 1): particularly expressed | Decrease in the systolic blood pressure (conscious SH rats [1]; 6.25 mg/kg p.o.): -18% | Decrease in the systolic blood pressure (conscious SH rats [1]; 12.5 mg/kg p.o.): -25% | Decrease in the systolic blood pressure (conscious SH rats [1]; 25 mg/kg p.o.): -32% | Inhibition of the stimulation ([2]; concentration 10^-7 mole): 0% | Inhibition of the stimulation ([2]; concentration 10^-8 mole): 0% | pA2 ([3]; negative logarithm of the molar antagonist concentration inhibiting the agonist to 50%, norepinephrine agonist, 5 min): 7.26 | Slope of the curve ([3]; rabbit aorta, norepinephrine): -1.26 | IC50 [4]: 400 nM | IC50 [5]: 500 nM | inhibition of the pressor effect of epinephrine (in words) [6]: significant inhibition | decrease in the systemic arterial blood pressure (anaesthetized dogs; 1.0 mg/kg i.v.): 50% | half-life of the effect (anaesthetized dogs; 1.0 mg/kg i.v.): 30 min | heart rate effect (in words) (anaesthetized dogs; 1.0 mg/kg i.v.): bradycardia was observed during the first 5 minutes, then the alteration was not significant | decay of the hypotensive effect (in words) (anaesthetized dogs; 1.0 mg/kg intraduodenal): only halved at the end of the first hour | decrease in the systemic arterial blood pressure (anaesthetized dogs; 1.0 mg/kg intraduodenal): 30% | tachycardia (anaesthetized dogs; 1.0 mg/kg intraduodenal): about 20% | time maximum effect remained constant (anaesthetized dogs; 1.0 mg/kg intraduodenal): 30 min | time of maximum effect (anaesthetized dogs; 1.0 mg/kg intraduodenal): 5 min | hypotensive activity compared with verapamil (in words) (anaesthetized dogs; any of the two routes): higher than that of verapamil | hypotensive activity compared with prazosine (in words) (anaesthetized dogs; intraduodenal): reached that of prazosine | hypotensive effect (in words) (anaesthetized dogs; intravenous and intraduodenal): strong hypotensive effect | peripheral vasodilatory action in the renal vascular bed compared with prazosine (in words) (renal artery): reached or eventually surpassed the activity of prazosine | peripheral vasodilatory action in the renal vascular bed compared with verapamil (in words) (renal artery): stronger effects than verapamil | decrease in resistance of the renal artery (renal artery; 1 mg/kg i.v.): about 40% | decrease in resistance of the renal artery (renal artery; 1.0 mg/kg intraduodenal): about 40% | hypotension up to the 5th hour (conscious SH rats [7]; SH rats, 6.25 mg/kg p.o., up to 5th hour): 16% | antihypertensive effect (conscious SH rats [7]; SH rats, 6.25 mg/kg p.o., within one hour): 29% | dose dependence of level and duration of the antihypertensive effect (in words) (conscious SH rats [7]; SH rats, 6.25, 12.5 or […] p.o.): increased by increasing the doses | heart rate alteration (in words) (conscious SH rats [7]; SH rats, p.o.): no significant heart rate alteration | maximum antihypertensive effect ([8]; 3.125 mg/kg p.o.): 16% | maximum antihypertensive effect ([8]; 12.5 mg/kg p.o.): 24% | antihypertensive effect in the 8th hour (in words) ([8]; 25 mg/kg p.o., 8th hour): significant even in the 8th hour | tachycardia ([8]; p.o.): 18% | time of disappearance of tachycardia (in words) ([8]; p.o.): disappeared in the 2nd to 3rd hours after the treatment | effect on the following days; tachyphylaxia (in words) (SH rats; 3 mg/kg i.p. twice daily for 14 days): not altered on the following days of treatment. No signs of tachyphylaxia were observed | maximum antihypertensive effect (SH rats; 3 mg/kg i.p. twice daily, 10th day): 22% | LD50 at 336 h (Acute toxicity in mice; ip, female, i.p., read-out: LD50 i.p.): 160 mg/kg | LD50 at 336 h (Acute toxicity in mice; ip, male, i.p., read-out: LD50 i.p.): 160 mg/kg | LD50 at 336 h (Acute toxicity in mice; po, female, p.o., read-out: LD50 p.o.): 200 mg/kg | LD50 at 336 h (Acute toxicity in mice; po, male, p.o., read-out: LD50 p.o.): 300 mg/kg
